Reference: ChEMBL document CHEMBL3576801, “Praeruptorin A inhibits in vitro migration of preosteoclasts and in vivo bone erosion, possibly due to its potential to target calmodulin” (J Nat Prod, 2015)
Calls of active or inactive are those of the source. The rule behind the calls is not given here.

Experiments:
Mus musculus [1] = assay: Antiresorptive activity in ICR mouse assessed as inhibition of LPS-induced cancellous bone loss in distal metaphysis at 2 to 4 mg/kg, ip administered for 8 days with LPS challenge on day 2 and 5 measured on day 9 by microCT analysis; assay type: functional, organism-based
[2] = target: Calmodulin-1 (Mus musculus) (UniProt P0DP26); assay: (§1) Binding affinity to Ca2+/calmodulin complex in preosteoclast derived from ICR mouse bone marrow-derived macrophages assessed as inhibition of RANKL-induced NFATc1 mRNA expression at 10 uM preincubated for 30 mins with M-CSF followed by RANKL induction measured after 3 hrs by real-time PCR analysis
[3] = target: T1, Tumor necrosis factor ligand superfamily member 11 (Mus musculus) (UniProt O35235); assay: Inhibition of RANKL-induced migration of preosteoclast derived from ICR mouse bone marrow-derived macrophages after 8 hrs by Boyden chamber assay; assay type: functional, cell-based; conditions: Osteoclast
T1 sequence (whole entry): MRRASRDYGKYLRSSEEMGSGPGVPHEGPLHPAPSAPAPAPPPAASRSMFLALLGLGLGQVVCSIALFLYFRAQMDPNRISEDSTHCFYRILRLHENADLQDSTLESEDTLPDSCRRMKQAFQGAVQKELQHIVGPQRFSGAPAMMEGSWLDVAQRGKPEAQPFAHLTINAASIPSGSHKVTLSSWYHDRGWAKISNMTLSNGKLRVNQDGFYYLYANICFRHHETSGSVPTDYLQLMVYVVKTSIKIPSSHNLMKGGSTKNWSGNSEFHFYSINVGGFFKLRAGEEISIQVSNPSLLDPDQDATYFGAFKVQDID

Mus musculus [4] = assay: Antiresorptive activity in ICR mouse assessed as inhibition of LPS-induced changes in trabecular thickness at 2 to 4 mg/kg, ip administered for 8 days with LPS challenge on day 2 and 5 measured on day 9 by histomorphometric analysis; assay type: functional, organism-based; conditions: Trabecula
[5] = target: Calmodulin-1 (Mus musculus) (UniProt P0DP26); assay: Binding affinity to Ca2+/calmodulin complex in preosteoclast derived from ICR mouse bone marrow-derived macrophages assessed as inhibition of RANKL-induced NFATc1 nuclear translocation at 10 uM preincubated for 30 mins with M-CSF followed by RANKL induction measured after 3 to 7 hrs by Western blot analysis
Mus musculus [6] = assay: Antiresorptive activity in ICR mouse assessed as inhibition of LPS-induced changes in trabecular number at 2 to 4 mg/kg, ip administered for 8 days with LPS challenge on day 2 and 5 measured on day 9 by histomorphometric analysis; assay type: functional, organism-based; conditions: Trabecula
[7] = target: Calmodulin-1 (Mus musculus) (UniProt P0DP26); assay: Binding affinity to Ca2+/calmodulin complex in preosteoclast derived from ICR mouse bone marrow-derived macrophages assessed as inhibition of CaMK-4 phosphorylation at T196 preincubated for 30 mins with M-CSF followed by RANKL induction measured after 30 mins by Western blot analysis
[8] = target: Calmodulin-1 (Mus musculus) (UniProt P0DP26); assay: Binding affinity to Ca2+/calmodulin complex in preosteoclast derived from ICR mouse bone marrow-derived macrophages assessed as inhibition of RANKL-induced DC-STAMP mRNA expression at 10 uM preincubated for 30 mins with M-CSF followed by RANKL induction measured after 3 hrs by real-time PCR analysis
[9] = target: Calmodulin-1 (Mus musculus) (UniProt P0DP26); assay: Binding affinity to Ca2+/calmodulin complex in preosteoclast derived from ICR mouse bone marrow-derived macrophages assessed as inhibition of NFATc1 nuclear translocation at 0.3 to 10 uM preincubated for 30 mins with M-CSF followed by RANKL induction measured after 30 mins by Western blot analysis
[10] = target: Calmodulin-1 (Homo sapiens) (UniProt P0DP23); assay: Binding affinity to recombinant human calmodulin assessed as inhibition of calcineurin phosphatase activity using R2 phosphopeptide substrate at 3 to 10 uM after 30 mins by malachite green staining-based colorimetric analysis in presence of CaCl2
[11] = target: T1, Tumor necrosis factor ligand superfamily member 11 (Mus musculus); assay: Inhibition of RANKL-induced fusion of preosteoclast derived from ICR mouse bone marrow-derived macrophages assessed as formation of tartrate-resistant acid phosphatase-positive multinucleated osteoclast preincubated for 30 mins with M-CSF followed by RANKL induction measured after 1 day by TRAP staining; assay type: functional, cell-based
[12] = Cytotoxicity against preosteoclast derived from ICR mouse bone marrow-derived macrophages assessed as cell viability at 0.1 to 10 uM after 1 day by CCK-8 assay; assay type: cell-based; conditions: osteoclast, 24 h
Calmodulin (Bos taurus) [13] = target: Calmodulin (Bos taurus) (UniProt P62157); assay: Binding affinity to bovine brain calmodulin at 0.1 mM after 60 mins by gel mobility shift assay in presence of CaCl2
[14] = target: Calmodulin-1 (Mus musculus) (UniProt P0DP26); assay: Binding affinity to Ca2+/calmodulin complex in preosteoclast derived from ICR mouse bone marrow-derived macrophages assessed as inhibition of RANKL-induced c-Fos mRNA expression at 10 uM preincubated for 30 mins with M-CSF followed by RANKL induction measured after 3 hrs by real-time PCR analysis
Mus musculus [15] = assay: Antiresorptive activity in ICR mouse assessed as inhibition of LPS-induced changes in bone volume/tissue volume at 2 to 4 mg/kg, ip administered for 8 days with LPS challenge on day 2 and 5 measured on day 9 by histomorphometric analysis; assay type: functional, organism-based
[16] = target: Calmodulin-1 (Mus musculus) (UniProt P0DP26); assay: as §1, with “cathepsin K” for “NFATc1”
Mus musculus [17] = assay: Antiresorptive activity in ICR mouse assessed as inhibition of LPS-induced changes in bone surface/tissue volume at 2 to 4 mg/kg, ip administered for 8 days with LPS challenge on day 2 and 5 measured on day 9 by histomorphometric analysis; assay type: functional, organism-based
[18] = target: Calmodulin-1 (Mus musculus) (UniProt P0DP26); assay: Binding affinity to Ca2+/calmodulin complex in preosteoclast derived from ICR mouse bone marrow-derived macrophages assessed as inhibition of RANKL-induced ATP6v0d2 mRNA expression at 10 uM preincubated for 30 mins with M-CSF followed by RANKL induction measured after 3 hrs by real-time PCR analysis
[19] = target: Calmodulin-1 (Mus musculus) (UniProt P0DP26); assay: Binding affinity to Ca2+/calmodulin complex in preosteoclast derived from ICR mouse bone marrow-derived macrophages assessed as inhibition of CREB phosphorylation at S133 preincubated for 30 mins with M-CSF followed by RANKL induction measured after 30 mins by Western blot analysis
Mus musculus [20] = assay: Antiresorptive activity in ICR mouse assessed as inhibition of LPS-induced changes in trabecular separation at 2 to 4 mg/kg, ip administered for 8 days with LPS challenge on day 2 and 5 measured on day 9 by histomorphometric analysis; assay type: functional, organism-based; conditions: Trabecula
Calmodulin (Bos taurus) [21] = target: Calmodulin (Bos taurus) (UniProt P62157); assay: Binding affinity to bovine brain calmodulin at 0.1 mM after 60 mins by gel mobility shift assay in presence of EGTA
[22] = target: Calmodulin-1 (Mus musculus) (UniProt P0DP26); assay: as §1, with “alphaV-integrin” for “NFATc1”
Mus musculus [23] = assay: Antiresorptive activity in ICR mouse assessed as reduction of LPS-induced trabecular bone loss at 2 to 4 mg/kg, ip administered for 8 days with LPS challenge on day 2 and 5 measured on day 9 by hematoxylin and eosin staining; assay type: functional, organism-based; conditions: Trabecula
Mus musculus [24] = assay: Antiresorptive activity in ICR mouse assessed as inhibition of LPS-induced changes in bone mineral density at 2 to 4 mg/kg, ip administered for 8 days with LPS challenge on day 2 and 5 measured on day 9 by histomorphometric analysis; assay type: functional, organism-based

C/C=C(/C)C(=O)O[C@@H]1[C@@H](OC(C)=O)c2c(ccc3ccc(=O)oc23)OC1(C)C
inhibition (Mus musculus [1]): Active | inhibition [2]: Active | inhibition [3]: Dose-dependent effect | inhibition (Mus musculus [4]): Active | inhibition [5]: Active | inhibition (Mus musculus [6]): Active | inhibition [7]: Dose-dependent effect | inhibition [8]: Active | inhibition [9]: Active | inhibition [10]: Active | inhibition [11]: Dose-dependent effect | Activity [12]: Non-toxic | Activity (Calmodulin (Bos taurus) [13]): Active | inhibition [14]: Active | inhibition (Mus musculus [15]): Active | inhibition [16]: Active | inhibition (Mus musculus [17]): Active | inhibition [18]: Active | inhibition [19]: Dose-dependent effect | inhibition (Mus musculus [20]): Active | Activity (Calmodulin (Bos taurus) [21]): inactive | inhibition [22]: Active | Activity (Mus musculus [23]): Active | inhibition (Mus musculus [24]): Active
